{"source": "the supplement of paper PMC10307832", "assay_in_all_cases": "relative viability (nuclei count vs DMSO), 5 days (fraction); higher = more cells survive", "key": {"BAY61-3606 + Bortezomib": {"compound": "COC1=C(C=C(C=C1)C2=CC3=NC=CN3C(=N2)NC4=C(C=CC=N4)C(=O)N)OC [BAY61-3606] + CC(C)C[C@H](NC(=O)[C@H](Cc1ccccc1)NC(=O)c1cnccn1)B(O)O [Bortezomib] (partner 0.002 µM)", "in_short": "(§1)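 Values are medians from duplicate plates. Each reflects relative viability, defined as the nuclei count of treated wells over that of vehicle wells. Lung cancer cell lines in 1536-well plates were pin-tool dosed one day after seeding with one drug alone or with a fixed anchor-drug dose plus five library-drug doses (not always all listed) in √10 steps, then fixed, stained and imaged at 4× after 5 days.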"}, "BAY61-3606 + Luminespib": {"compound": "COC1=C(C=C(C=C1)C2=CC3=NC=CN3C(=N2)NC4=C(C=CC=N4)C(=O)N)OC [BAY61-3606] + CCNC(=O)c1noc(-c2cc(C(C)C)c(O)cc2O)c1-c1ccc(CN2CCOCC2)cc1 [Luminespib] (partner 0.01 µM)", "in_short": "as §1"}, "BAY61-3606 + Vorinostat": {"compound": "COC1=C(C=C(C=C1)C2=CC3=NC=CN3C(=N2)NC4=C(C=CC=N4)C(=O)N)OC [BAY61-3606] + O=C(CCCCCCC(=O)Nc1ccccc1)NO [Vorinostat] (partner 1 µM)", "in_short": "as §1"}, "BAY61-3606 + Crizotinib": {"compound": "COC1=C(C=C(C=C1)C2=CC3=NC=CN3C(=N2)NC4=C(C=CC=N4)C(=O)N)OC [BAY61-3606] + C[C@@H](Oc1cc(-c2cnn(C3CCNCC3)c2)cnc1N)c1c(Cl)ccc(F)c1Cl [Crizotinib] (partner 1 µM)", "in_short": "as §1"}}}
{"cell line": "UMC-11", "values": [{"measurement": "relative viability", "setting": "BAY61-3606 + Bortezomib; first compound 0.02 µM", "value": 0.947}, {"measurement": "relative viability", "setting": "BAY61-3606 + Bortezomib; first compound 0.06325 µM", "value": 0.616}, {"measurement": "relative viability", "setting": "BAY61-3606 + Bortezomib; first compound 0.2 µM", "value": 0.643}, {"measurement": "relative viability", "setting": "BAY61-3606 + Bortezomib; first compound 0.6325 µM", "value": 0.849}, {"measurement": "relative viability", "setting": "BAY61-3606 + Bortezomib; first compound 2 µM", "value": 0.734}, {"measurement": "relative viability", "setting": "BAY61-3606 + Luminespib; first compound 0.02 µM", "value": 1.12}, {"measurement": "relative viability", "setting": "BAY61-3606 + Luminespib; first compound 0.06325 µM", "value": 1.17}, {"measurement": "relative viability", "setting": "BAY61-3606 + Luminespib; first compound 0.2 µM", "value": 1.08}, {"measurement": "relative viability", "setting": "BAY61-3606 + Luminespib; first compound 0.6325 µM", "value": 1.05}, {"measurement": "relative viability", "setting": "BAY61-3606 + Luminespib; first compound 2 µM", "value": 0.921}, {"measurement": "relative viability", "setting": "BAY61-3606 + Vorinostat; first compound 0.02 µM", "value": 0.43}, {"measurement": "relative viability", "setting": "BAY61-3606 + Vorinostat; first compound 0.06325 µM", "value": 0.385}, {"measurement": "relative viability", "setting": "BAY61-3606 + Vorinostat; first compound 0.2 µM", "value": 0.436}, {"measurement": "relative viability", "setting": "BAY61-3606 + Vorinostat; first compound 0.6325 µM", "value": 0.465}, {"measurement": "relative viability", "setting": "BAY61-3606 + Vorinostat; first compound 2 µM", "value": 0.326}, {"measurement": "relative viability", "setting": "BAY61-3606 + Crizotinib; first compound 0.02 µM", "value": 0.664}, {"measurement": "relative viability", "setting": "BAY61-3606 + Crizotinib; first compound 0.06325 µM", "value": 0.613}, {"measurement": "relative viability", "setting": "BAY61-3606 + Crizotinib; first compound 0.2 µM", "value": 0.503}, {"measurement": "relative viability", "setting": "BAY61-3606 + Crizotinib; first compound 0.6325 µM", "value": 0.762}, {"measurement": "relative viability", "setting": "BAY61-3606 + Crizotinib; first compound 2 µM", "value": 0.509}]}
